Measured values published in PubChem BioAssay (NCI).
“And” between values parts separate entries of the source, which are not always exact repeats. Identical values can stand only once.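 Exposure lasted 48 hours, with cells grown in 96-well plates and compounds tested at five concentrations. GI50 = concentration required for 50% inhibition of growth. The concentration for full growth arrest is given as TGI.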

Key:
Experiment in all cases: NCI tumour cell line growth inhibition, 48 h
786-0 renal = system: 786-0 renal
A498 renal = system: A498 renal
A549 NSCLC = system: A549 NSCLC
ACHN renal = system: ACHN renal
BT-549 breast = system: BT-549 breast
CCRF-CEM leukemia = system: CCRF-CEM leukemia
COLO 205 colon = system: COLO 205 colon
DU-145 prostate = system: DU-145 prostate
EKVX NSCLC = system: EKVX NSCLC
HCC-2998 colon = system: HCC-2998 colon
HCT-116 colon = system: HCT-116 colon
HCT-15 colon = system: HCT-15 colon
HL-60(TB) leukemia = system: HL-60(TB) leukemia
HOP-62 NSCLC = system: HOP-62 NSCLC
HOP-92 NSCLC = system: HOP-92 NSCLC
HS 578T breast = system: HS 578T breast
HT29 colon = system: HT29 colon
IGROV1 ovarian = system: IGROV1 ovarian
K-562 leukemia = system: K-562 leukemia
KM12 colon = system: KM12 colon
LOX IMVI melanoma = system: LOX IMVI melanoma
MALME-3M melanoma = system: MALME-3M melanoma
MCF7 breast = system: MCF7 breast
MDA-MB-231 breast = system: MDA-MB-231 breast
MDA-MB-435 = system: MDA-MB-435
MOLT-4 leukemia = system: MOLT-4 leukemia
NCI-H226 lung = system: NCI-H226 lung
NCI-H23 lung = system: NCI-H23 lung
NCI-H460 lung = system: NCI-H460 lung
NCI-H522 lung = system: NCI-H522 lung
NCI/ADR-RES ovarian = system: NCI/ADR-RES ovarian
OVCAR-3 ovarian = system: OVCAR-3 ovarian
OVCAR-4 ovarian = system: OVCAR-4 ovarian
OVCAR-5 ovarian = system: OVCAR-5 ovarian
OVCAR-8 ovarian = system: OVCAR-8 ovarian
PC-3 prostate = system: PC-3 prostate
RPMI-8226 leukemia = system: RPMI-8226 leukemia
RXF 393 renal = system: RXF 393 renal
SF-268 CNS = system: SF-268 CNS
SF-295 CNS = system: SF-295 CNS
SF-539 CNS = system: SF-539 CNS
SK-MEL-2 melanoma = system: SK-MEL-2 melanoma
SK-MEL-28 melanoma = system: SK-MEL-28 melanoma
SK-MEL-5 melanoma = system: SK-MEL-5 melanoma
SK-OV-3 ovarian = system: SK-OV-3 ovarian
SN12C renal = system: SN12C renal
SNB-19 CNS = system: SNB-19 CNS
SNB-75 CNS = system: SNB-75 CNS
SR leukemia = system: SR leukemia
SW-620 colon = system: SW-620 colon
TK-10 renal = system: TK-10 renal
U251 CNS = system: U251 CNS
UACC-257 melanoma = system: UACC-257 melanoma
UACC-62 melanoma = system: UACC-62 melanoma
UO-31 renal = system: UO-31 renal

`COC(=O)[C@@H](C)C[C@H](Cc1ccccc1)NC(=O)c1csc([C@@H](C[C@H](C(C)C)N(C)C(=O)[C@@H](NC(=O)[C@H]2CCCN2C)C2CC2)OC(C)=O)n1` was tested, and the GI50 (786-0 renal) was 4.79 nM and 2.5 nM, the TGI (786-0 renal) was over 25000 nM and the GI50 (A498 renal) was 1.47 nM and < 2.5 nM. The TGI (A498 renal) was 8.17 nM and < 2.5 nM, the GI50 (A549 NSCLC) was 6.64 nM and 2.5 nM and the TGI (A549 NSCLC) was over 25000 nM. For the same compound, the GI50 (ACHN renal) was 4.19 nM and 2.5 nM, the TGI (ACHN renal) was over 25000 nM and the GI50 (BT-549 breast) was 0.664 nM and < 2.5 nM. For the same compound, the GI50 (CCRF-CEM leukemia) was 0.586 nM and 2.5 nM, the TGI (CCRF-CEM leukemia) was over 25000 nM and the GI50 (COLO 205 colon) was 0.874 nM and < 2.5 nM. The TGI (COLO 205 colon) was 11.7 nM and < 2.5 nM, the GI50 (DU-145 prostate) was 0.446 nM and 2.5 nM and the TGI (DU-145 prostate) was over 25000 nM. The GI50 (EKVX NSCLC) was 8.33 nM, the GI50 (HCC-2998 colon) was 4.31 nM and 2.5 nM and the TGI (HCC-2998 colon) was over 25000 nM. The GI50 (HCT-116 colon) was 0.389 nM, the GI50 (HCT-15 colon) was 4.95 nM and 2.5 nM and the TGI (HCT-15 colon) was over 25000 nM. The GI50 (HL-60(TB) leukemia) was 0.219 nM and < 2.5 nM, the TGI (HL-60(TB) leukemia) was 0.738 nM and < 2.5 nM and the GI50 (HOP-62 NSCLC) was 2.55 nM and 2.5 nM. The TGI (HOP-62 NSCLC) was over 25000 nM, the GI50 (HOP-92 NSCLC) was 0.286 nM and the GI50 (HS 578T breast) was 1.86 nM. The GI50 (HT29 colon) was 0.503 nM and 2.5 nM, the TGI (HT29 colon) was over 25000 nM and the GI50 (IGROV1 ovarian) was 0.823 nM and 2.5 nM. For the same compound, the TGI (IGROV1 ovarian) was over 25000 nM, the GI50 (K-562 leukemia) was 0.352 nM and 2.5 nM and the TGI (K-562 leukemia) was over 25000 nM. For the same compound, the GI50 (KM12 colon) was 2.22 nM and 2.5 nM, the TGI (KM12 colon) was over 25000 nM and the GI50 (LOX IMVI melanoma) was 4.77 nM and 2.5 nM. For the same compound, the TGI (LOX IMVI melanoma) was over 25000 nM, the GI50 (MALME-3M melanoma) was 4410 nM and the TGI (MALME-3M melanoma) was over 25000 nM. For the same compound, the TGI (MCF7 breast) was over 25000 nM, the GI50 (MDA-MB-231 breast) was 1.65 nM and < 2.5 nM and the TGI (MDA-MB-231 breast) was under 2.5 nM. The GI50 (MDA-MB-435) was under 2.5 nM, the TGI (MDA-MB-435) was 0.49 nM and < 2.5 nM and the GI50 (MOLT-4 leukemia) was 3.16 nM and 2.5 nM. The TGI (MOLT-4 leukemia) was over 25000 nM, the TGI (NCI-H226 lung) was over 25000 nM and the GI50 (NCI-H23 lung) was 3.65 nM and 2.5 nM. The TGI (NCI-H23 lung) was over 25000 nM, the GI50 (NCI-H460 lung) was 2.38 nM and 2.5 nM and the TGI (NCI-H460 lung) was over 25000 nM. The GI50 (NCI-H522 lung) was 0.223 nM, the TGI (NCI-H522 lung) was 0.814 nM and the GI50 (NCI/ADR-RES ovarian) was 276 nM and 262 nM. It also gave a TGI (NCI/ADR-RES ovarian) of over 25000 nM, a GI50 (OVCAR-3 ovarian) of 0.198 nM and a TGI (OVCAR-3 ovarian) of 6.95 nM. The TGI (OVCAR-4 ovarian) was over 25000 nM, the TGI (OVCAR-5 ovarian) was over 25000 nM and the GI50 (OVCAR-8 ovarian) was 2.62 nM and 2.5 nM. For the same compound, the TGI (OVCAR-8 ovarian) was over 25000 nM, the GI50 (PC-3 prostate) was 0.545 nM and 2.5 nM and the TGI (PC-3 prostate) was over 25000 nM. For the same compound, the GI50 (RPMI-8226 leukemia) was 0.262 nM and 2.5 nM, the TGI (RPMI-8226 leukemia) was 12200 nM and the GI50 (RXF 393 renal) was 2.5 nM. The TGI (RXF 393 renal) was over 25000 nM, the GI50 (SF-268 CNS) was 8.71 nM and 2.5 nM and the TGI (SF-268 CNS) was over 25000 nM. The GI50 (SF-295 CNS) was 3.02 nM and 2.5 nM, the TGI (SF-295 CNS) was over 25000 nM and the GI50 (SF-539 CNS) was 1.72 nM and < 2.5 nM. For the same compound, the TGI (SF-539 CNS) was 6.59 nM and < 2.5 nM, the GI50 (SK-MEL-2 melanoma) was 0.505 nM and the GI50 (SK-MEL-28 melanoma) was 32.4 nM. The GI50 (SK-MEL-5 melanoma) was 0.329 nM and < 2.5 nM, the GI50 (SK-OV-3 ovarian) was 8.3 nM and 2.5 nM and the TGI (SK-OV-3 ovarian) was over 25000 nM. For the same compound, the GI50 (SN12C renal) was 0.981 nM and 2.5 nM, the TGI (SN12C renal) was over 25000 nM and the GI50 (SNB-19 CNS) was 1.25 nM and 2.5 nM. The TGI (SNB-19 CNS) was over 25000 nM, the GI50 (SNB-75 CNS) was 2.5 nM and the TGI (SNB-75 CNS) was over 25000 nM. The TGI (SR leukemia) was over 25000 nM, the GI50 (SW-620 colon) was 0.508 nM and 2.5 nM and the TGI (SW-620 colon) was over 25000 nM. The TGI (TK-10 renal) was over 25000 nM, the GI50 (U251 CNS) was 2.87 nM and 2.5 nM and the TGI (U251 CNS) was over 25000 nM. For the same compound, the GI50 (UACC-257 melanoma) was 220 nM, the GI50 (UACC-62 melanoma) was 0.445 nM and 2.5 nM and the TGI (UACC-62 melanoma) was over 25000 nM. It also gave a TGI (UO-31 renal) of over 25000 nM.
